The term CC50 denotes the concentration that lowers cell viability or growth by half.

One assay has as its system HEK293. The experiment in a line: cells. It counts as functional, Homo sapiens, ATCC CRL1573. As to conditions: Homo sapiens, ATCC CRL1573, HEK293; ASSAY_TEST Inhibition of Cell Viability; detection method Resazurin; Fluorescence (ex560/em590); MEDIA DMEM with 10% FBS; plate type 384well; TC; CORNING #3712; time 18 hr; read-out: CC50. For orientation: Resazurin is reduced to fluorescent resorufin, in cell work by metabolically active cells.

For assay [1], the system named is Pseudomonas aeruginosa. As to the kind of experiment: Antibacterial activity against Pseudomonas aeruginosa PAO397 [PAO1 d(mexAB-oprM) d(mexCD-oprJ) d(mexEF-oprN) d(mexJKL) d(mexXY) d(opmH)] (CO-ADD:GN_211); MIC in CAMBH media using NBS plates, by OD(600). The class given is functional. The note with it: ASSAY_TEST Inhibition of Bacterial Growth, detection method Absorption (OD600), MEDIA CAMHB, plate type 384well, CORNING #3640, time 18 hr.

A further assay deals with Staphylococcus aureus. As to the kind of experiment: microbe, parasite or virus in culture. The note with it: ATCC 43300, 18 h, ASSAY_TEST Inhibition of Bacterial Growth, detection method Absorption (OD600), MEDIA CAMHB, plate type 384well, NBS, CORNING #3640.
A further assay relates to Escherichia coli. The experiment in a line: microbe, parasite or virus in culture. As to conditions: ATCC 25922, 18 h, ASSAY_TEST Inhibition of Bacterial Growth, detection method Absorption (OD600), MEDIA CAMHB, plate type 384well, NBS, CORNING #3640.
The next assay relates to Klebsiella pneumoniae. As to the kind of experiment: microbe, parasite or virus in culture. As to conditions: ATCC 700603, 18 h, ASSAY_TEST Inhibition of Bacterial Growth, detection method Absorption (OD600), MEDIA CAMHB, plate type 384well, NBS, CORNING #3640.
Assay [2] deals with Pseudomonas aeruginosa. As to the kind of experiment: microbe, parasite or virus in culture. As to conditions: ATCC 27853, 18 h, ASSAY_TEST Inhibition of Bacterial Growth, detection method Absorption (OD600), MEDIA CAMHB, plate type 384well, NBS, CORNING #3640.
Description: Antibacterial activity against Pseudomonas aeruginosa ATCC 27853 (CO-ADD:GN_042); MIC in CAMBH media using NBS plates, by OD(600)
Another assay concerns Acinetobacter baumannii. The experiment in a line: microbe, parasite or virus in culture. As to conditions: ATCC 19606, 18 h, ASSAY_TEST Inhibition of Bacterial Growth, detection method Absorption (OD600), MEDIA CAMHB, plate type 384well, NBS, CORNING #3640.
A further assay relates to Candida albicans. The experiment in a line: microbe, parasite or virus in culture. As to conditions: ATCC 90028, ASSAY_TEST Inhibition of Fungal Growth, detection method Absorption (OD530), plate type 384well, NBS, CORNING #3640.

Description for Acinetobacter baumannii: Antibacterial activity against Acinetobacter baumannii ATCC 19606 (CO-ADD:GN_034); MIC in CAMBH media using NBS plates, by OD600
Description for Candida albicans: Antifungal activity against Candida albicans ATCC 90028 (CO-ADD:FG_001); MIC in YNB media using NBS plates, by OD630
Description for Cryptococcus neoformans: Antifungal activity against Cryptococcus neoformans H99 ATCC 208821 (CO-ADD:FG_002); MIC in YNB media using NBS plates, by Resazurin OD(600-570)
Description for Escherichia coli: Antibacterial activity against Escherichia coli ATCC 25922 (CO-ADD:GN_001); MIC in CAMBH media using NBS plates, by OD(600)
Description for Klebsiella pneumoniae: Antibacterial activity against Klebsiella pneumoniae MDR ATCC 70063 (CO-ADD:GN_003); MIC in CAMBH media using NBS plates, by OD(600)
Description for Staphylococcus aureus: Antibacterial activity against Staphylococcus aureus MRSA ATCC 43300 (CO-ADD:GP_020); MIC in CAMBH media, using NBS plates, by OD(600)

Turning to `O=c1[nH]c(=O)n(Cc2cccc(Oc3ccccc3)c2)cc1Nc1ccccc1`, the CC50 with HEK293 is > 20 µM. The MIC against Pseudomonas aeruginosa [1], in the assay with Cryptococcus neoformans, against Staphylococcus aureus, against Escherichia coli, in the assay with Klebsiella pneumoniae and in the assay with Pseudomonas aeruginosa [2] was > 20 µM each time. Besides, the MIC against Acinetobacter baumannii and against Candida albicans was > 20 µM each time.
For the compound `CCOC(=O)/C=C/[C@H](C[C@@H]1CCNC1=O)NC(=O)[C@H](CC)n1cccc(NC(=O)c2cc(C)on2)c1=O`, the 50% cytotoxic concentration (CC50) in the assay with HEK293 is > 20 µM. In addition, the MIC against Pseudomonas aeruginosa [1], with Cryptococcus neoformans, with Staphylococcus aureus, against Escherichia coli, against Klebsiella pneumoniae and with Pseudomonas aeruginosa [2] was > 20 µM in each case. Besides, the MIC with Acinetobacter baumannii and against Candida albicans was > 20 µM in each case.
On to `Oc1ccc(NCc2ccccc2OCc2ccccc2)cc1`, for which the cytotoxic concentration (CC50) in the assay on HEK293 was > 20 µM. Further, the MIC in the assay on Pseudomonas aeruginosa [1], in the assay with Cryptococcus neoformans, against Staphylococcus aureus, against Escherichia coli, in the assay on Klebsiella pneumoniae and with Pseudomonas aeruginosa [2] was > 20 µM throughout. Moreover, the MIC against Acinetobacter baumannii and with Candida albicans was > 20 µM throughout.
In the case of `NC(=O)c1c(N)sc2c1CCCCC2`, in the assay on HEK293, the half-maximal cytotoxic concentration (CC50) is > 20 µM. The MIC against Pseudomonas aeruginosa [1], in the assay with Cryptococcus neoformans, against Staphylococcus aureus, against Escherichia coli, against Klebsiella pneumoniae and in the assay on Pseudomonas aeruginosa [2] was > 20 µM each time. Besides, the MIC in the assay on Acinetobacter baumannii and in the assay on Candida albicans was > 20 µM in each case.
For the compound `O=C(c1cc(O)nc2ccccc12)N1CCN(c2ccccc2)CC1`, in the assay with HEK293, the half-maximal cytotoxic concentration (CC50) is > 20 µM. In addition, the MIC against Pseudomonas aeruginosa [1], against Cryptococcus neoformans, with Staphylococcus aureus, against Escherichia coli, against Klebsiella pneumoniae and with Pseudomonas aeruginosa [2] was > 20 µM throughout. For the same compound, the MIC against Acinetobacter baumannii and against Candida albicans was > 20 µM in each case.
`COc1ccc(NS(=O)(=O)c2ccc(Cl)s2)cn1`: the half-maximal cytotoxic concentration (CC50) in the assay with HEK293 was > 20 µM. The MIC against Pseudomonas aeruginosa [1], against Cryptococcus neoformans, against Staphylococcus aureus, against Escherichia coli, with Klebsiella pneumoniae and against Pseudomonas aeruginosa [2] was > 20 µM in each case. For the same compound, the MIC with Acinetobacter baumannii and in the assay on Candida albicans was > 20 µM throughout.
Regarding `Cc1ccc(C)c(OCCCCCCN2C[C@H](O)[C@@H](O)[C@H](O)[C@H]2CO)c1`, the 50% cytotoxic concentration (CC50) in the assay with HEK293 is > 20 µM. The MIC in the assay on Pseudomonas aeruginosa [1], in the assay with Cryptococcus neoformans, with Staphylococcus aureus, in the assay on Escherichia coli, in the assay with Klebsiella pneumoniae and against Pseudomonas aeruginosa [2] was > 20 µM each time. The MIC against Acinetobacter baumannii and against Candida albicans was > 20 µM in each case.
As to `CCc1cc(CCC(=O)Nc2ccccc2O)c(O)nc1C`, in the assay with HEK293, the CC50 was > 20 µM. Moreover, the MIC against Pseudomonas aeruginosa [1], in the assay on Cryptococcus neoformans, in the assay with Staphylococcus aureus, in the assay with Escherichia coli, with Klebsiella pneumoniae and with Pseudomonas aeruginosa [2] was > 20 µM in each case. Moreover, the MIC with Acinetobacter baumannii and against Candida albicans was > 20 µM throughout.
`Cc1ccc(N2CCC(CCOc3ccc(S(C)(=O)=O)cc3)CC2)nn1`: the CC50 in the assay with HEK293 is > 20 µM. The MIC in the assay on Pseudomonas aeruginosa [1], against Cryptococcus neoformans, against Staphylococcus aureus, in the assay with Escherichia coli, in the assay with Klebsiella pneumoniae and in the assay with Pseudomonas aeruginosa [2] was > 20 µM throughout. In addition, the MIC in the assay with Acinetobacter baumannii and against Candida albicans was > 20 µM in each case.
Turning to `NC(=O)c1nccn([C@@H]2O[C@H](CO)[C@@H](O)[C@H]2O)c1=O`, the cytotoxic concentration (CC50) in the assay with HEK293 is > 20 µM. The MIC against Pseudomonas aeruginosa [1], with Cryptococcus neoformans, against Staphylococcus aureus, with Escherichia coli, against Klebsiella pneumoniae and with Pseudomonas aeruginosa [2] was > 20 µM in each case. In addition, the MIC with Acinetobacter baumannii and with Candida albicans was > 20 µM each time.
Turning to `CC[N+]1(C/C2=C/CCCCCC2)CCC(NC(=O)C2c3cc(Cl)ccc3Oc3ccc(Cl)cc32)CC1` (configuration not stated), the CC50 in the assay with HEK293 is > 20 µM. The MIC against Pseudomonas aeruginosa [1] was > 20 µM; with Cryptococcus neoformans, > 20 µM; in the assay on Staphylococcus aureus, 20 µM; against Escherichia coli, > 20 µM; against Klebsiella pneumoniae, > 20 µM; in the assay with Pseudomonas aeruginosa [2], > 20 µM. Moreover, the MIC in the assay on Acinetobacter baumannii and with Candida albicans was > 20 µM in each case.
Regarding `CCc1cc(CCCOc2c(C)cc(-c3noc(C(F)(F)F)n3)cc2C)on1`, the half-maximal cytotoxic concentration (CC50) with HEK293 was > 20 µM. Further, the MIC in the assay on Pseudomonas aeruginosa [1], in the assay with Cryptococcus neoformans, against Staphylococcus aureus, with Escherichia coli, with Klebsiella pneumoniae and in the assay on Pseudomonas aeruginosa [2] was > 20 µM each time. The MIC with Acinetobacter baumannii and in the assay with Candida albicans was > 20 µM in each case.
With `CCC(CC)[C@H](NC(C)=O)[C@@H]1[C@H](O)[C@@H](C(=O)O)C[C@H]1NC(=N)N`, the cytotoxic concentration (CC50) in the assay with HEK293 was > 20 µM. Besides, the MIC against Pseudomonas aeruginosa [1], against Cryptococcus neoformans, against Staphylococcus aureus, with Escherichia coli, against Klebsiella pneumoniae and in the assay with Pseudomonas aeruginosa [2] was > 20 µM each time. Moreover, the MIC against Acinetobacter baumannii and in the assay on Candida albicans was > 20 µM in each case.
`CCCCCCCCCN1C[C@@H](O)[C@H](O)[C@@H](O)[C@@H]1CO`: the CC50 in the assay on HEK293 was > 20 µM. The MIC with Pseudomonas aeruginosa [1], with Cryptococcus neoformans, in the assay on Staphylococcus aureus, against Escherichia coli, with Klebsiella pneumoniae and against Pseudomonas aeruginosa [2] was > 20 µM each time. Besides, the MIC against Acinetobacter baumannii and in the assay on Candida albicans was > 20 µM throughout.
With `O=C(NCCN1CCCCC1)c1cccc(C(F)(F)F)c1`, the 50% cytotoxic concentration (CC50) in the assay on HEK293 is > 20 µM. For the same compound, the MIC with Pseudomonas aeruginosa [1], with Cryptococcus neoformans, against Staphylococcus aureus, in the assay with Escherichia coli, against Klebsiella pneumoniae and in the assay on Pseudomonas aeruginosa [2] was > 20 µM in each case. Further, the MIC against Acinetobacter baumannii and against Candida albicans was > 20 µM throughout.
Regarding `Nc1ccc2oc(=O)ccc2c1I`, the 50% cytotoxic concentration (CC50) in the assay on HEK293 is > 20 µM. Besides, the MIC in the assay on Pseudomonas aeruginosa [1], in the assay on Cryptococcus neoformans, against Staphylococcus aureus, against Escherichia coli, against Klebsiella pneumoniae and against Pseudomonas aeruginosa [2] was > 20 µM in each case. In addition, the MIC with Acinetobacter baumannii and against Candida albicans was > 20 µM in each case.
Regarding `COc1ccc2sc3c(c2c1)NC(C)CNC3=O` (configuration not stated), in the assay on HEK293, the half-maximal cytotoxic concentration (CC50) stood at 8.52 µM. The MIC with Pseudomonas aeruginosa [1], against Cryptococcus neoformans, against Staphylococcus aureus, against Escherichia coli, against Klebsiella pneumoniae and against Pseudomonas aeruginosa [2] was > 20 µM each time. Besides, the MIC in the assay on Acinetobacter baumannii and with Candida albicans was > 20 µM in each case.
As for `O=c1oc2ccc(Br)cc2cc1CSc1ncc[nH]1`, the CC50 in the assay on HEK293 was > 20 µM. The MIC in the assay with Pseudomonas aeruginosa [1], against Cryptococcus neoformans, with Staphylococcus aureus, in the assay on Escherichia coli, in the assay with Klebsiella pneumoniae and against Pseudomonas aeruginosa [2] was > 20 µM throughout. In addition, the MIC against Acinetobacter baumannii and against Candida albicans was > 20 µM each time.

Source of the values: ChEMBL document CHEMBL4513161, “CO-ADD screening of MMV (CH) - Pandemic Response Box” (2021).
